Structures are written as SMILES.

Data set [1] is described as follows: The drug is tested on Bifidobacterium breve strain: DSM20213 for biotransformation. The drug concentrations were measured before and after a 12-h incubation by liquid-chromatography-coupled mass spectrometry (LC–MS). Conditions: 2 µM.
Data set [2] is described as follows: The drug is tested on Bacteroides coprophilus strain: DSM18228 for biotransformation. The drug concentrations were measured before and after a 12-h incubation by liquid-chromatography-coupled mass spectrometry (LC–MS). Conditions: 2 µM.
The nature of data set [3]: The drug is tested on Bacteroides dorei strain: DSM17855 for biotransformation. The drug concentrations were measured before and after a 12-h incubation by liquid-chromatography-coupled mass spectrometry (LC–MS). Conditions: phocaeicola dorei, 2 µM.
Data set [4] in a line: The drug is tested on Bacteroides fragilis strain: HMW615 for biotransformation. The drug concentrations were measured before and after a 12-h incubation by liquid-chromatography-coupled mass spectrometry (LC–MS). Conditions: 2 µM.
Data set [5] in a line: The drug is tested on Bacteroides uniformis strain: ATCC8492 for biotransformation. The drug concentrations were measured before and after a 12-h incubation by liquid-chromatography-coupled mass spectrometry (LC–MS). Conditions: 2 µM.
Data set [6] in a line: The drug is tested on Bacteroides sp. WH2 strain: WH2 for biotransformation. The drug concentrations were measured before and after a 12-h incubation by liquid-chromatography-coupled mass spectrometry (LC–MS). Conditions: bacteroides sp. wh2, 12 h, 2 µM.
Data set [7] can be described thus: The drug is tested on Odoribacter splanchnicus strain: fecal isolate for biotransformation. The drug concentrations were measured before and after a 12-h incubation by liquid-chromatography-coupled mass spectrometry (LC–MS). Conditions: 2 µM.
A short description of data set [8]: The drug is tested on Anaerococcus hydrogenalis strain: DSM7454 for biotransformation. The drug concentrations were measured before and after a 12-h incubation by liquid-chromatography-coupled mass spectrometry (LC–MS). Conditions: 2 µM.
The nature of data set [9]: The drug is tested on Clostridium symbiosum strain: ATCC14940 for biotransformation. The drug concentrations were measured before and after a 12-h incubation by liquid-chromatography-coupled mass spectrometry (LC–MS). Conditions: 2 µM.
Data set [10] in a line: The drug is tested on Eubacterium hallii strain: DSM3353 for biotransformation. The drug concentrations were measured before and after a 12-h incubation by liquid-chromatography-coupled mass spectrometry (LC–MS). Conditions: anaerobutyricum hallii, 2 µM.
Data set [11] can be described thus: The drug is tested on Eubacterium rectale strain: ATCC33656 for biotransformation. The drug concentrations were measured before and after a 12-h incubation by liquid-chromatography-coupled mass spectrometry (LC–MS). Conditions: agathobacter rectalis, 2 µM.
The nature of data set [12]: The drug is tested on Edwardsiella tarda strain: ATCC23685 for biotransformation. The drug concentrations were measured before and after a 12-h incubation by liquid-chromatography-coupled mass spectrometry (LC–MS). Conditions: 2 µM.
Data set [13] can be described thus: The drug is tested on Enterobacter cancerogenus strain: ATCC35316 for biotransformation. The drug concentrations were measured before and after a 12-h incubation by liquid-chromatography-coupled mass spectrometry (LC–MS). Conditions: 2 µM.
Data set [14] can be described thus: The drug is tested on Escherichia coli strain: BW25113 for biotransformation. The drug concentrations were measured before and after a 12-h incubation by liquid-chromatography-coupled mass spectrometry (LC–MS). Conditions: 2 µM.
For data set [15] the following is noted: bacteroides fragilis, 12 h, 2 µM.
Description: The drug is tested on Bacteroides fragilis strain: NCTC 9343 for biotransformation. The drug concentrations were measured before and after a 12-h incubation by liquid-chromatography-coupled mass spectrometry (LC–MS)
For data set [16] the following is noted: parabacteroides distasonis, 12 h, 2 µM.
Description: The drug is tested on Parabacteroides distasonis strain: ATCC8503 for biotransformation. The drug concentrations were measured before and after a 12-h incubation by liquid-chromatography-coupled mass spectrometry (LC–MS)
For data set [17] the following is noted: limosilactobacillus reuteri cf48-3a, 12 h, 2 µM.
Description: The drug is tested on Lactobacillus reuteri CF48-3A strain: BEI HM-102 for biotransformation. The drug concentrations were measured before and after a 12-h incubation by liquid-chromatography-coupled mass spectrometry (LC–MS)
Data set [18] is described as follows: The drug is tested on Enterococcus faecalis strain: V583 for biotransformation. The drug concentrations were measured before and after a 12-h incubation by liquid-chromatography-coupled mass spectrometry (LC–MS). Conditions: 2 µM.
The conditions of data set [19]: bacteroides eggerthii, 12 h, 2 µM.
Description: The drug is tested on Bacteroides eggerthii strain: DSM20697 for biotransformation. The drug concentrations were measured before and after a 12-h incubation by liquid-chromatography-coupled mass spectrometry (LC–MS)

On to `CC[C@@]1(O)C(=O)OCc2c1cc1n(c2=O)Cc2cc3c(CN(C)C)c(O)ccc3nc2-1` [TOPOTECAN], for which the “Bacterial Biotransformation” value in data set [1], in [2], in [3], in data set [4], in data set [5] and in data set [6] was “Compound NOT metabolized” in each case. The “Bacterial Biotransformation” value in data set [7], in [8], in data set [9], in data set [10], in data set [11] and in [12] was “Compound NOT metabolized” throughout. Further, the “Bacterial Biotransformation” value in data set [13], in [14], in data set [15], in [16] and in data set [17] was “Compound NOT metabolized” each time.

On to `C[C@@H](c1ncncc1F)[C@](O)(Cn1cncn1)c1ccc(F)cc1F` [VORICONAZOLE], for which the “Bacterial Biotransformation” value in [1] is “Compound NOT metabolized”; in data set [3], “Compound metabolized”; in data set [4], “Compound metabolized”; in data set [5], “Compound metabolized”; in [6], “Compound NOT metabolized”; in data set [7], “Compound metabolized”. Besides, the “Bacterial Biotransformation” value in [8], in data set [9], in [18], in data set [10], in [11] and in data set [12] was “Compound NOT metabolized” throughout. Also, the “Bacterial Biotransformation” value in data set [13] is on record as “Compound NOT metabolized”; in data set [14] it was “Compound NOT metabolized”; in data set [19] it was “Compound NOT metabolized”; in data set [15] it was “Compound NOT metabolized”; in data set [16], “Compound metabolized”; in [17], “Compound NOT metabolized”.

With `OCCOCCN1CCN(C2=Nc3ccccc3Sc3ccccc32)CC1` [QUETIAPINE], the “Bacterial Biotransformation” value in data set [1], in [2], in data set [3], in data set [4], in data set [5] and in data set [6] was “Compound NOT metabolized” in each case. In addition, the “Bacterial Biotransformation” value in data set [7], in [8], in data set [9], in [10], in data set [11] and in [12] was “Compound NOT metabolized” throughout. The “Bacterial Biotransformation” value in [13], in data set [14], in data set [19], in data set [15] and in data set [17] was “Compound NOT metabolized” in each case.

Consider `O=C1C(CC[S+]([O-])c2ccccc2)C(=O)N(c2ccccc2)N1c1ccccc1` (configuration not stated) [SULFINPYRAZONE], for which the “Bacterial Biotransformation” value in [1] is given as “Compound NOT metabolized”; in data set [2] it was “Compound NOT metabolized”; in [4] it was “Compound metabolized”; in data set [7], “Compound metabolized”; in data set [8], “Compound NOT metabolized”; in [18] it was “Compound NOT metabolized”. Further, the “Bacterial Biotransformation” value is reported as “Compound NOT metabolized” in data set [10]; “Compound NOT metabolized” in [11]; “Compound NOT metabolized” in [12]; “Compound metabolized” in [13]; “Compound NOT metabolized” in [14]; “Compound NOT metabolized” in data set [19]. Also, the figures for the “Bacterial Biotransformation” value in data set [15], in [16] and in data set [17] were “Compound metabolized”, “Compound NOT metabolized” and “Compound NOT metabolized”, respectively.

`O=c1n(CCCN2CCN(c3cccc(Cl)c3)CC2)nc2ccccn12` [TRAZODONE]: the “Bacterial Biotransformation” value in [1], in [2], in [3], in data set [4], in data set [6] and in [8] was “Compound NOT metabolized” each time. In addition, the “Bacterial Biotransformation” value in [9], in data set [18], in [10], in [11], in [12] and in [13] was “Compound NOT metabolized” in each case. In addition, the “Bacterial Biotransformation” value in data set [14], in data set [19], in [15], in data set [16] and in data set [17] was “Compound NOT metabolized” each time.

For `CCCc1nn(C)c2c(=O)[nH]c(-c3cc(S(=O)(=O)N4CCN(C)CC4)ccc3OCC)nc12.O=C(O)CC(O)(CC(=O)O)C(=O)O` [SILDENAFIL CITRATE], the “Bacterial Biotransformation” value in [1] was “Compound NOT metabolized”; in [2], “Compound metabolized”; in data set [4] it was “Compound NOT metabolized”; in data set [5] it was “Compound NOT metabolized”; in [6], “Compound NOT metabolized”; in [7] it was “Compound metabolized”. Moreover, the “Bacterial Biotransformation” value in data set [8] is reported as “Compound metabolized”; in data set [9], “Compound NOT metabolized”; in data set [18] it was “Compound NOT metabolized”; in [10], “Compound NOT metabolized”; in [11], “Compound NOT metabolized”; in [12] it was “Compound NOT metabolized”. Further, the “Bacterial Biotransformation” value in data set [13] is on record as “Compound NOT metabolized”; in data set [14] it was “Compound NOT metabolized”; in data set [19], “Compound NOT metabolized”; in data set [15], “Compound metabolized”; in [16], “Compound NOT metabolized”; in [17], “Compound metabolized”.

Take `c1ccc2[nH]c(-c3cscn3)nc2c1` [THIABENDAZOLE]: the “Bacterial Biotransformation” value in data set [1], in data set [3], in data set [4], in data set [5], in data set [6] and in data set [8] was “Compound NOT metabolized” in each case. Moreover, the “Bacterial Biotransformation” value in [9], in data set [18], in data set [10], in data set [11], in data set [12] and in data set [13] was “Compound NOT metabolized” in each case. The “Bacterial Biotransformation” value in data set [14], in [19] and in [17] was “Compound NOT metabolized” each time.
